Tests used:
[1] = test system: SK-MEL-5; assay: cells; conditions: Homo sapiens, SK-MEL-5, 48 h
[2] = test system: MOLT-4; assay: cells; conditions: Homo sapiens, MOLT-4, 48 h
[3] = test system: 60 cancer cell lines; assay: NCI-60 one-dose screen (10 μM); format: cell-based; conditions: Homo sapiens; one dose of 10 μM, mean over 60 cancer cell lines; read-out: Mean Growth Percent (MGP)
From the text: Additionally, the mean of the growth percentages (MGP) of each compound against all the 60 cancer cell lines is also reported, which is used as one of the selection criteria to continue with tests at five concentration doses.

[4] = test system: A498; assay: cells; conditions: Homo sapiens, A498, 48 h
[5] = test system: T-47D; assay: cells; conditions: Homo sapiens, T47D, 48 h
[6] = test system: NCI-H522; assay: cells; conditions: Homo sapiens, NCI-H522, 48 h
[7] = test system: OVCAR-5; assay: cells; conditions: Homo sapiens, OVCAR-5, 48 h
[8] = test system: MDA-MB-231/ATCC; assay: cells; conditions: Homo sapiens, MDA-MB-231, 48 h
[9] = test system: MCF7; assay: cells; conditions: Homo sapiens, MCF7, 48 h
[10] = test system: SN12C; assay: cells; conditions: Homo sapiens, 48 h
[11] = test system: KM12; assay: cells; conditions: Homo sapiens, KM12, 48 h
[12] = test system: LOX IMVI; assay: cells; conditions: Homo sapiens, 48 h
[13] = test system: SF-539; assay: cells; conditions: Homo sapiens, SF-539, 48 h
[14] = test system: NCI-H23; assay: cells; conditions: Homo sapiens, NCI-H23, 48 h
[15] = test system: SF-295; assay: cells; conditions: Homo sapiens, SF-295, 48 h
[16] = test system: M14; assay: cells; conditions: Homo sapiens, M14, 48 h
[17] = test system: A549/ATCC; assay: cells; conditions: Homo sapiens, A549, 48 h
[18] = test system: NCI-H460; assay: cells; conditions: Homo sapiens, NCI-H460, 48 h
[19] = test system: SNB-75; assay: cells; conditions: Homo sapiens, SNB-75, 48 h
[20] = test system: RPMI-8226; assay: cells; conditions: Homo sapiens, RPMI-8226, 48 h
[21] = test system: OVCAR-4; assay: cells; conditions: Homo sapiens, OVCAR-4, 48 h
[22] = test system: HCT-116; assay: cells; conditions: Homo sapiens, HCT-116, 48 h
[23] = test system: HL-60(TB); assay: cells; conditions: Homo sapiens, HL-60, 48 h
[24] = test system: COLO 205; assay: cells; conditions: Homo sapiens, COLO 205, 48 h
[25] = test system: NCI-H226; assay: cells; conditions: Homo sapiens, NCI-H226, 48 h
[26] = test system: TK-10; assay: cells; conditions: Homo sapiens, TK-10, 48 h
[27] = test system: SK-OV-3; assay: cells; conditions: Homo sapiens, SK-OV-3, 48 h
[28] = test system: HCT-15; assay: cells; conditions: Homo sapiens, HCT-15, 48 h
[29] = test system: U251; assay: cells; conditions: Homo sapiens, U-251, 48 h
[30] = test system: HOP-92; assay: cells; conditions: Homo sapiens, HOP-92, 48 h
[31] = test system: UACC-257; assay: cells; conditions: Homo sapiens, UACC-257, 48 h
[32] = test system: 786-0; assay: cells; conditions: Homo sapiens, 786-0, 48 h
[33] = test system: MDA-MB-468; assay: cells; conditions: Homo sapiens, MDA-MB-468, 48 h
[34] = test system: UO-31; assay: cells; conditions: Homo sapiens, UO-31, 48 h
[35] = test system: DU-145; assay: cells; conditions: Homo sapiens, DU-145, 48 h
[36] = test system: HT29; assay: cells; conditions: Homo sapiens, HT-29, 48 h
[37] = test system: SK-MEL-2; assay: cells; conditions: Homo sapiens, SK-MEL-2, 48 h

`CN(C)c1nc(NCCNS(=O)(=O)c2ccc(C(=O)/C=C/c3ccccc3)cc2)nc(Nc2ccc(F)cc2)n1` [24a] gave a GI50 [1] of 4.7 µM, a CC50 ([1]; read-out: LC50) of 41.6 µM and a GI50 [2] of 3.22 µM. For the same compound, the CC50 ([2]; read-out: LC50) was greater than 100 µM, the activity at 10 µM [3] was 13.6% and the GI50 [4] was 11.6 µM. It also gave a CC50 ([4]; read-out: LC50) of 49.7 µM, a GI50 [5] of 3.45 µM and a CC50 ([5]; read-out: LC50) of 41.7 µM. It also gave a GI50 [6] of 5.47 µM, a CC50 ([6]; read-out: LC50) of 53.6 µM and a GI50 [7] of 13.3 µM. It also gave a CC50 ([7]; read-out: LC50) of 53.2 µM, a GI50 [8] of 4.84 µM and a CC50 ([8]; read-out: LC50) of 45.8 µM. The GI50 [9] was 1.99 µM, the CC50 ([9]; read-out: LC50) was 8.23 µM and the GI50 [10] was 8.2 µM. For the same compound, the CC50 ([10]; read-out: LC50) was 46.2 µM, the GI50 [11] was 3.74 µM and the CC50 ([11]; read-out: LC50) was 54 µM. For the same compound, the GI50 [12] was 2.47 µM, the CC50 ([12]; read-out: LC50, LOX IMVI, 48 h) was 27.4 µM and the GI50 [13] was 12 µM. For the same compound, the CC50 ([13]; read-out: LC50, SF-539, 48 h) was 50.2 µM, the GI50 [14] was 10.1 µM and the CC50 ([14]; read-out: LC50) was 50 µM. The GI50 [15] was 6.96 µM, the CC50 ([15]; read-out: LC50) was 44.5 µM and the GI50 [16] was 5.98 µM. It also gave a CC50 ([16]; read-out: LC50) of 51.5 µM, a GI50 [17] of 8.33 µM and a CC50 ([17]; read-out: LC50) of 73.5 µM. For the same compound, the GI50 [18] was 4.34 µM, the CC50 ([18]; read-out: LC50) was 56.5 µM and the GI50 [19] was 3.23 µM. For the same compound, the CC50 ([19]; read-out: LC50) was greater than 100 µM, the GI50 [20] was 3.04 µM and the CC50 ([20]; read-out: LC50) was greater than 100 µM. It also gave a GI50 [21] of 4.39 µM, a CC50 ([21]; read-out: LC50) of 99.3 µM and a GI50 [22] of 1.72 µM. It also gave a CC50 ([22]; read-out: LC50) of 6.1 µM, a GI50 [23] of 3.88 µM and a CC50 ([23]; read-out: LC50) greater than 100 µM. The GI50 [24] was 5.46 µM, the CC50 ([24]; read-out: LC50) was 56.7 µM and the GI50 [25] was 5.22 µM. It also gave a CC50 ([25]; read-out: LC50) of 57.3 µM, a GI50 [26] of 14.6 µM and a CC50 ([26]; read-out: LC50) of 65.5 µM. For the same compound, the GI50 [27] was 13 µM, the CC50 ([27]; read-out: LC50) was 68.1 µM and the GI50 [28] was 2.04 µM. The CC50 ([28]; read-out: LC50) was 7.25 µM, the GI50 ([29]; U251, 48 h) was 10.4 µM and the CC50 ([29]; read-out: LC50) was 57.8 µM. For the same compound, the GI50 [30] was 8.1 µM, the CC50 ([30]; read-out: LC50) was 60.1 µM and the GI50 [31] was 12.6 µM. It also gave a CC50 ([31]; read-out: LC50) of 61 µM, a GI50 [32] of 11.2 µM and a CC50 ([32]; read-out: LC50) of 56.9 µM. It also gave a GI50 [33] of 2.84 µM, a CC50 ([33]; read-out: LC50) of 37.6 µM and a GI50 [34] of 4.6 µM. For the same compound, the CC50 ([34]; read-out: LC50) was 41.9 µM, the GI50 [35] was 12.1 µM and the CC50 ([35]; read-out: LC50) was 53.2 µM. It also gave a GI50 [36] of 3.08 µM, a CC50 ([36]; read-out: LC50) of 73.5 µM and a GI50 [37] of 10.6 µM. For the same compound, the CC50 ([37]; read-out: LC50) was 55.4 µM.

Reference: publication PMC11012124, “Synthesis of Novel Triazine-Based Chalcones and 8,9-dihydro-7H-pyrimido[4,5-b][1,4]diazepines as Potential Leads in the Search of Anticancer, Antibacterial and Antifungal Agents” (International Journal of Molecular Sciences, 2024)
